Measured values from PubChem BioAssay (NCI).
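Dose response: 5 concentrations. Exposure: 48 h. Format: 96-well plates. Endpoint: linear interpolation; highest concentration if not reached. GI50 = concentration required for 50% inhibition of growth. TGI marks complete inhibition of growth.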

How the values were obtained:
Assay in all cases: NCI tumour cell line growth inhibition, 48 h
[1] = tested on: UO-31 renal
[2] = tested on: NCI-H522 lung
[3] = tested on: NCI/ADR-RES ovarian
[4] = tested on: SF-539 CNS
[5] = tested on: MDA-MB-231 breast
[6] = tested on: SF-295 CNS
[7] = tested on: U251 CNS
[8] = tested on: SR leukemia
[9] = tested on: HCT-116 colon
[10] = tested on: MDA-N

Row | Compound | TGI [1] | TGI [2] | TGI [3] | TGI [4] | TGI [5] | TGI [6] | TGI [7] | TGI [8] | TGI [9] | TGI [10] | GI50 [2] | GI50 [3] | GI50 [4] | GI50 [6] | GI50 [8]
1 | O=C1c2ccccc2-c2nc(-c3cccnc3)cc3c2c1nc1ccccc13 | > 100 µM | > 100 µM | > 100 µM | > 100 µM | > 100 µM | > 100 µM | > 100 µM | > 100 µM | > 100 µM | – | – | – | – | – | –
2 | COc1cc(/C=C/C(C)=O)ccc1OP(=O)(O)O | > 100 µM | > 100 µM | – | > 100 µM | > 100 µM | > 100 µM | > 100 µM | – | > 100 µM | > 100 µM | – | – | – | – | –
3 | CCOP(=O)(Nc1ccc(-c2ccccc2)cc1)OCC | > 100 µM | > 100 µM | > 100 µM | – | > 100 µM | > 100 µM | > 100 µM | – | > 100 µM | > 100 µM | – | – | – | – | –
4 | COc1cccc2cc(C(N)=O)c(=N)oc12 | – | – | > 100 µM | > 100 µM | > 100 µM | – | > 100 µM | > 100 µM | > 100 µM | > 100 µM | – | – | – | – | –
5 | CC(C)OP(=O)(CN(C)/C(F)=N\C(F)(F)F)OC(C)C | > 100 µM | > 100 µM | > 100 µM | > 100 µM | > 100 µM | > 100 µM | > 100 µM | – | > 100 µM | > 100 µM | – | – | – | – | –
6 | C=C1c2c(cc3c(c2O)c(=O)c2ccccc2n3C)OC1(C)C | > 100 µM | 9.49 µM | – | > 100 µM | – | > 100 µM | > 100 µM | – | – | – | – | – | – | – | –
7 | Cc1ccc(C(=O)C(C)N)cc1 (stereo unspecified) | > 100 µM | > 100 µM | – | > 100 µM | – | > 100 µM | > 100 µM | > 100 µM | > 100 µM | – | – | – | – | – | –
8 | Cc1c(-c2cc3n(n2)C(c2cccs2)C(C#N)=C(c2ccccc2)N3)c(=O)n(-c2ccccc2)n1C (stereo unspecified) | > 100 µM | > 100 µM | > 100 µM | > 100 µM | – | > 100 µM | > 90.8 µM | – | > 100 µM | – | – | – | – | – | –
9 | O=c1[nH]c2ccc(CC(=S)N3CCOCC3)cc2s1 | – | – | > 100 µM | > 100 µM | > 100 µM | > 100 µM | > 100 µM | > 100 µM | > 100 µM | > 100 µM | – | – | – | – | –
10 | CCOP(=O)(/C=C\n1cnc2c(=O)n(C(C)=O)c(N)nc21)OCC | – | – | > 100 µM | > 100 µM | > 100 µM | > 100 µM | > 100 µM | – | > 100 µM | > 100 µM | – | – | – | – | –
11 | CC(=O)C1=C(N=[N+]=[N-])c2cccc3cccc(c23)C1=O | 29.7 µM | 29.3 µM | 70.9 µM | 42 µM | 32 µM | 61.7 µM | 66 µM | – | 30.8 µM | 42.7 µM | – | – | – | – | –
12 | NNC(=O)CNC(=O)CSc1nnc(COc2ccc(Cl)cc2)n1-c1ccccc1 | > 100 µM | > 100 µM | > 100 µM | > 100 µM | > 100 µM | > 100 µM | > 100 µM | – | > 100 µM | > 100 µM | – | – | – | – | –
13 | O=P(O)(O)C(CSc1ccccc1)P(=O)(O)O | > 100 µM | > 100 µM | > 100 µM | > 100 µM | – | > 100 µM | > 100 µM | – | > 100 µM | – | – | – | – | – | –
14 | COP(C)(=O)/C(Cc1ccccc1)=N\O (stereo unspecified) | > 100 µM | – | > 100 µM | – | > 100 µM | > 100 µM | > 100 µM | > 100 µM | > 100 µM | > 100 µM | – | – | – | – | –
15 | CC[C@@]1(O)C(=O)OCc2c1cc1n(c2=O)Cc2c-1nc1ccccc1c2CC[Si](C)(C)C | 0.056 µM | 1.55 µM | > 100 µM | 3.32 µM | > 53.9 µM | 0.0544 µM | 0.103 µM | – | 0.116 µM | > 100 µM | – | – | – | – | –
16 | CC(=O)Nc1ncc(Sc2ccccc2C(=O)O)s1 | > 100 µM | – | > 100 µM | > 100 µM | > 100 µM | > 100 µM | > 100 µM | > 100 µM | > 100 µM | > 100 µM | – | – | – | – | –
17 | CC(=O)O[C@H]1CC[C@]2(C)[C@H]3CC[C@@H]4[C@H]5[C@H](C(C)C)CC[C@]5(C(=O)OCC(CO)(CO)N=C(N)N)CC[C@@]4(C)[C@]3(C)CC[C@H]2C1(C)C | – | 3.16 µM | 5.17 µM | 3.34 µM | – | 3.79 µM | – | 4.61 µM | – | – | 1600 nM | 2230 nM | 1830 nM | 1860 nM | 2110 nM
18 | CC(=O)[O-].CC(=O)[O-].O=C(N/N=C/c1cc(Cl)cc(Cl)c1[OH2+])c1ccncc1.[Co+2] | > 100 µM | > 100 µM | – | > 100 µM | – | > 100 µM | – | > 100 µM | > 100 µM | – | – | – | – | – | –
19 | O=C1c2cc3ccccc3cc2C2(c3ccc(Cl)cc3)N[C@H]3CCCC[C@@H]3N12 (stereo partly specified) | 57.6 µM | – | 41.6 µM | 21.8 µM | 36.2 µM | 32.4 µM | 30.1 µM | 48.7 µM | 18.8 µM | 57.8 µM | – | – | – | – | –
